In one assay the target is Melanocortin receptor 3 (Mus musculus, UniProt P33033). Nature of the assay: Agonist activity at mouse MC3 receptor expressed in HEK-293 cells assessed as cAMP response measured after 2 hrs incubation by cAMP Alphascreen assay. Type of assay: functional, cell-based, HEK293. For orientation: In Alpha technology, singlet oxygen from a donor bead excites a nearby acceptor bead.

The next assay has as its target Melanocortin receptor 4 (Mus musculus, UniProt P56450). Put plainly: Agonist activity at mouse MC4 receptor expressed in HEK-293 cells assessed as cAMP response measured after 2 hrs incubation by cAMP Alphascreen assay. Type of assay: functional, cell-based, HEK293.
Another assay deals with Melanocortin receptor 5 (Mus musculus, UniProt P41149). Put plainly: Agonist activity at mouse MC5 receptor expressed in HEK-293 cells assessed as cAMP response measured after 2 hrs incubation by cAMP Alphascreen assay. Format: functional, cell-based, HEK293.
The target of assay [1] is Melanocyte-stimulating hormone receptor (Mus musculus, UniProt Q01727). Put plainly: Agonist activity at mouse MC1 receptor expressed in HEK-293 cells assessed as cAMP response measured after 2 hrs incubation by cAMP Alphascreen assay. Type of assay: functional, cell-based, HEK293.
The target in assay [2] is Melanocortin receptor 3 (Mus musculus) (UniProt P33033). Nature of the assay: Agonist activity at mouse MC3 receptor expressed in HEK-293 cells assessed as cAMP response measured at 100 uM after 2 hrs incubation by cAMP Alphascreen assay relative to control. Type of assay: functional, cell-based. Particulars: HEK293.
Assay [3] deals with Melanocortin receptor 4 (Mus musculus) (UniProt P56450). Nature of the assay: Agonist activity at mouse MC4 receptor expressed in HEK-293 cells assessed as cAMP response measured at 100 uM after 2 hrs incubation by cAMP Alphascreen assay relative to control. Format: functional, cell-based. Conditions: HEK293.
Assay [4] concerns the target Melanocortin receptor 5 (Mus musculus) (UniProt P41149). Put plainly: Agonist activity at mouse MC5 receptor expressed in HEK-293 cells assessed as cAMP response measured at 100 uM after 2 hrs incubation by cAMP Alphascreen assay relative to control. Type of assay: functional, cell-based. Conditions: HEK293.
Assay [5] deals with Melanocyte-stimulating hormone receptor (Mus musculus) (UniProt Q01727). Nature of the assay: Agonist activity at mouse MC1 receptor expressed in HEK-293 cells assessed as cAMP response measured at 100 uM after 2 hrs incubation by cAMP Alphascreen assay relative to control. Type of assay: functional, cell-based. Conditions: HEK293.
The species named for a further assay is Mus musculus. Put plainly: Selectivity ratio for mouse MC3 receptor over mouse MC4 receptor.

Square brackets hold non-standard residues; d marks the D form. Peptide text beside a SMILES is read from it.

Nine molecules from ChEMBL document CHEMBL3580664, “Synthesis and Pharmacology of α/β(3)-Peptides Based on the Melanocortin Agonist Ac-His-dPhe-Arg-Trp-NH2 Sequence” (ACS Med Chem Lett, 2015) can be followed below.

Melanocortin receptor 5, sequence (P41149 whole entry): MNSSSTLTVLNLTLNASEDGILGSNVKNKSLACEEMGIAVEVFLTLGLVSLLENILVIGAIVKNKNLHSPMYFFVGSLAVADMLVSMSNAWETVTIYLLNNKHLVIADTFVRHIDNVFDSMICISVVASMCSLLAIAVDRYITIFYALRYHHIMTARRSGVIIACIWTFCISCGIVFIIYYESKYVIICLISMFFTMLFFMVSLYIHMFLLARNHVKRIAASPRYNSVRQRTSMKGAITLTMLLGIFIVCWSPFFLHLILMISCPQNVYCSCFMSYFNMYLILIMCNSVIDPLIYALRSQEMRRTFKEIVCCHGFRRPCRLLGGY
Melanocyte-stimulating hormone receptor, sequence (Q01727 whole entry): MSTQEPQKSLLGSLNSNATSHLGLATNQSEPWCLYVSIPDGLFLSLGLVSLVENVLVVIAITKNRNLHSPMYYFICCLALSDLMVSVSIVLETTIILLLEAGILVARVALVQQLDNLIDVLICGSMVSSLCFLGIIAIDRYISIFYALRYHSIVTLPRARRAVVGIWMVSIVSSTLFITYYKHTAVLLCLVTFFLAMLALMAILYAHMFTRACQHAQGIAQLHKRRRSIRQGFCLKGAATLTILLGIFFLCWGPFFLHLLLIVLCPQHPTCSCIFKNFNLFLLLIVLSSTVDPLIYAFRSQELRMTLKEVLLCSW
Melanocortin receptor 4, sequence (P56450 whole entry): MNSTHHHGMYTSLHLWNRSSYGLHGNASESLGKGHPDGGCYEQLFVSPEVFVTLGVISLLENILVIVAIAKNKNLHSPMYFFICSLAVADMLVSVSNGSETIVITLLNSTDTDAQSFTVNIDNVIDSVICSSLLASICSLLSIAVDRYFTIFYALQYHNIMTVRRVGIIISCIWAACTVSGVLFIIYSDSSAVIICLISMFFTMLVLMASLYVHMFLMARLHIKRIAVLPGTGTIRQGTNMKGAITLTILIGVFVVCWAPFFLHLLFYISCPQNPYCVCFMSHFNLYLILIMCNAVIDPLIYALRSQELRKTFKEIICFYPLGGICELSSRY
Melanocortin receptor 3 (Mus musculus), sequence (P33033 whole entry): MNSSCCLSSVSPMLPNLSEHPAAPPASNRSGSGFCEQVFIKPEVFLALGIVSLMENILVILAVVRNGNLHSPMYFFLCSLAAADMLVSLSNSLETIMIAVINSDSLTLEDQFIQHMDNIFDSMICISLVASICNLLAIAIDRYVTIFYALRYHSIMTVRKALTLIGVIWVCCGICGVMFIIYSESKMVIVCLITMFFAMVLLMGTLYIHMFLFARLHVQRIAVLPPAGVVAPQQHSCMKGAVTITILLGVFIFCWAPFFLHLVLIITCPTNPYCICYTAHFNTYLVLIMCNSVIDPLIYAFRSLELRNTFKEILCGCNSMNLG
Melanocortin receptor 3, sequence (P33033 whole entry): as above
Melanocortin receptor 5 (Mus musculus), sequence (P41149 whole entry): as the sequence (P41149 whole entry) above
Melanocortin receptor 4 (Mus musculus), sequence (P56450 whole entry): as the sequence (P56450 whole entry) above
Melanocyte-stimulating hormone receptor (Mus musculus), sequence (Q01727 whole entry, looked up): as the sequence (Q01727 whole entry) above

With `CC(=O)N[C@@H](Cc1ccccc1)C(=O)N[C@@H](CCCNC(=N)N)C(=O)N[C@@H](Cc1c[nH]c2ccccc12)C(N)=O` (Ac-Phe-Arg-Trp-NH2), the EC50 on Melanocortin receptor 3, on Melanocortin receptor 4 and on Melanocortin receptor 5 was more than 100000 nM in each case.
Consider `CC(=O)N[C@H](Cc1ccccc1)C(=O)N[C@@H](CCCN=C(N)N)C(=O)N[C@@H](Cc1c[nH]c2ccccc12)C(N)=O` (Ac-[dF]-Arg-Trp-NH2), for which the EC50 in [1] amounted to 10000 nM. The Activity worked out at 40% in [2], 70% in assay [3] and 70% in assay [4].
Consider `CC(=O)N[C@@H](Cc1c[nH]cn1)C(=O)N[C@@H](Cc1ccccc1)C(=O)N[C@@H](CCCN=C(N)N)C(=O)N[C@@H](Cc1c[nH]c2ccccc12)C(N)=O`, for which the results for the EC50 on Melanocortin receptor 4 and on Melanocortin receptor 5 were 1210 nM and 70 nM, respectively.
Take `CC(=O)N[C@@H](Cc1cnc[nH]1)C(=O)N[C@H](Cc1ccccc1)C(=O)N[C@@H](CCCN=C(N)N)C(=O)N[C@@H](Cc1c[nH]c2ccccc12)C(N)=O`: the EC50 at Melanocortin receptor 4 amounted to 5.6 nM.
Turning to `CC(=O)N[C@@H](Cc1c[nH]cn1)C(=O)N[C@H](CC(=O)N[C@@H](CCCNC(=N)N)C(=O)N[C@@H](Cc1c[nH]c2ccccc12)C(N)=O)Cc1ccccc1`, the EC50 in assay [1] came out at 6580 nM; on Melanocortin receptor 4, 7680 nM; on Melanocortin receptor 5, 4810 nM. The Activity in assay [2] was 70%.
As for `CC(=O)N[C@@H](Cc1c[nH]cn1)C(=O)N[C@@H](CC(=O)N[C@@H](CCCNC(=N)N)C(=O)N[C@@H](Cc1c[nH]c2ccccc12)C(N)=O)Cc1ccccc1`, the EC50 in [1] amounted to 7030 nM. Moreover, the Activity stood at 50% in [2], 60% in assay [3] and 60% in [4].
In the case of `CC(=O)N[C@@H](Cc1ccccc1)C(=O)N[C@@H](CCCN=C(N)N)C(=O)N[C@@H](Cc1c[nH]c2ccccc12)C(N)=O` (Ac-Phe-Arg-Trp-NH2), the Activity in [5] came out at 60%.
On to `CC(=O)N[C@@H](Cc1c[nH]cn1)C(=O)N[C@H](Cc1ccccc1)C(=O)N[C@@H](CCCNC(=N)N)C(=O)N[C@H](CC(N)=O)Cc1c[nH]c2ccccc12`, for which the EC50 in [1] amounted to 33 nM; at Melanocortin receptor 3 it was 415 nM; on Melanocortin receptor 4 it was 12 nM; at Melanocortin receptor 5, 5.6 nM. Moreover, in the assay filed under Mus musculus, the Selectivity ratio was found to be 35.
In the same order, the values of `CC(=O)N[C@@H](Cc1c[nH]cn1)C(=O)N[C@H](Cc1ccccc1)C(=O)N[C@@H](CCCNC(=N)N)CC(=O)N[C@@H](Cc1c[nH]c2ccccc12)C(N)=O` are 37 nM, 854 nM, 70 nM, 73 nM and 12.

The EC50 is the concentration needed to bring the measured effect to its halfway point.
